Measurements as given in publication PMC7764612 (Pharmaceuticals, 2020).
Several values for one entry are separate records, joined by “and”; a condition that tells them apart may be missing. Equal values may be shown once. Entries after “also recorded” stand apart in the source; their conditions may differ.

Key:
[1] = in vitro; conditions: human
[2] = test system: TBEV Neudoerfl strain; format: cell-based, tick-borne encephalitis virus
[3] = test system: TBEV Neudoerfl strain; assay: microbe, parasite or virus in culture; format: cell-based, tick-borne encephalitis virus; conditions: for IC50: Tick-borne encephalitis virus, A549, 72 h, read-out: IC50 (concentration to reduce infectious viral titers by 50%)
[4] = test system: TBEV E protein; format: cell-based, tick-borne encephalitis virus
[5] = test system: TBEV Hypr strain; format: cell-based, tick-borne encephalitis virus

Structure (SMILES): CC(=O)OC[C@H]1O[C@@H](NC(=O)[C@H]2O[C@@H](n3ccc(=O)[nH]c3=O)[C@@H]3OC(C)(C)O[C@@H]32)[C@H](OC(C)=O)[C@@H](OC(C)=O)[C@@H]1OC(C)=O [Compound 13]
- CC50 [1]: 129 µM

Structure (SMILES): CC(=O)OC[C@H]1O[C@@H](NC(=O)[C@H]2O[C@@H](n3ccc(=O)[nH]c3=O)[C@@H]3OC(C)(C)O[C@@H]32)[C@H](OC(C)=O)[C@@H](OC(C)=O)[C@H]1OC(C)=O [Compound 14]
- CC50 [1]: 114 µM

Structure (SMILES): CC1(C)O[C@@H]2[C@H](O1)[C@@H](C(=O)N[C@@H]1O[C@H](COCc3ccccc3)[C@@H](OCc3ccccc3)[C@H](OCc3ccccc3)[C@H]1OCc1ccccc1)O[C@H]2n1ccc(=O)[nH]c1=O [Compound 15, N-(2″,3″,4″,6″-tetra-O-benzyl-β-D-galactopyranosyl)-2′,3′-O-isopropylidene-uridine-5′-amide]
- CC50 [1]: 153 µM

Structure (SMILES): CC(=O)OC[C@H]1O[C@@H](n2cc(CNC(=O)[C@H]3O[C@@H](n4ccc(=O)[nH]c4=O)[C@@H]4OC(C)(C)O[C@@H]43)nn2)[C@H](OC(C)=O)[C@@H](OC(C)=O)[C@@H]1OC(C)=O [Compound 16]
- CC50 [1]: 136 µM

Structure (SMILES): CC(=O)OC[C@H]1O[C@@H](n2cc(CNC(=O)[C@H]3O[C@@H](n4ccc(=O)[nH]c4=O)[C@@H]4OC(C)(C)O[C@@H]43)nn2)[C@H](OC(C)=O)[C@@H](OC(C)=O)[C@H]1OC(C)=O [Compound 17]
- CC50 [1]: 137 µM

Structure (SMILES): CC(=O)OC[C@H]1O[C@@H](n2cc(CNC(=O)[C@H]3O[C@@H](n4ccc(=O)[nH]c4=O)[C@H](O[Si](C)(C)C(C)(C)C)[C@@H]3O[Si](C)(C)C(C)(C)C)nn2)[C@H](OC(C)=O)[C@@H](OC(C)=O)[C@@H]1OC(C)=O [Compound 18, 1-(2″,3″,4″,6″-tetra-O-acetyl-β-D-glucopyranosyl)-4-(2′,3′-di-O-tert-butyldimethylsilyl-uridine-5′-carbonylaminomethyl)-[1,2,3]-triazole]
- Inhibition of TBEV propagation (size and number of plaques) [2]: effectively inhibited virus propagation
- Reduction in the number of plaques [2]: 98%
- Effect on TBEV titers in dose-response assay [3]: significantly reduced TBEV titers in a dose-dependent manner
- Reduction in viral titer [3]: 10^3–10^6 fold
- SI (selectivity index: CC50/IC50) [3]: 7.4
- IC50 [3]: 9.3 µM
- CC50 [1]: 69 µM
- Production of TBEV E protein (Western blot) [4]: dose-dependent reduction
- TBEV-induced cytopathic effect / rate of cell death [5]: strongly reduced; also recorded: significantly increased cell survival

Structure (SMILES): CC(=O)OC[C@H]1O[C@@H](n2cc(CNC(=O)[C@H]3O[C@@H](n4ccc(=O)[nH]c4=O)[C@H](O[Si](C)(C)C(C)(C)C)[C@@H]3O[Si](C)(C)C(C)(C)C)nn2)[C@H](OC(C)=O)[C@@H](OC(C)=O)[C@H]1OC(C)=O [Compound 19, 1-(2″,3″,4″,6″-tetra-O-acetyl-β-D-galactopyranosyl)-4-(2′,3′-di-O-tert-butyldimethylsilyl-uridine-5′-carbonylaminomethyl)-[1,2,3]-triazole]
- Inhibition of TBEV propagation (size and number of plaques) [2]: effectively inhibited virus propagation
- Reduction in the number of plaques [2]: 81%
- Effect on TBEV titers in dose-response assay [3]: significantly reduced TBEV titers in a dose-dependent manner
- Reduction in viral titer [3]: 10^3–10^6 fold
- SI (selectivity index: CC50/IC50) [3]: 5.1
- IC50 [3]: 15.1 µM
- CC50 [1]: 77 µM
- Production of TBEV E protein (Western blot) [4]: dose-dependent reduction
- TBEV-induced cytopathic effect / rate of cell death [5]: strongly reduced; also recorded: significantly increased cell survival

Structure (SMILES): CC(=O)OC[C@H]1O[C@@H](n2cc(COC[C@H]3O[C@@H](n4ccc(=O)[nH]c4=O)[C@H](O[Si](C)(C)C(C)(C)C)[C@@H]3O[Si](C)(C)C(C)(C)C)nn2)[C@H](OC(C)=O)[C@@H](OC(C)=O)[C@@H]1OC(C)=O [Compound 20, 1-(2″,3″,4″,6″-tetra-O-acetyl-β-D-glucopyranosyl)-4-(2′,3′-di-O-tert-butyldimethylsilyl-uridine-5′-O-methyl)-[1,2,3]-triazole]
- Inhibition of TBEV propagation (size and number of plaques) [2]: nearly a complete inhibition of TBEV propagation
- Plaques detected in dose-response plaque reduction assay [2]: no plaques were detected
- Reduction in the number of plaques [2]: 96% and 75%
- Effect on TBEV titers in dose-response assay [3]: significantly reduced TBEV titers in a dose-dependent manner
- Reduction in viral titer [3]: 10^3 fold
- SI (selectivity index: CC50/IC50) [3]: 49.7
- Virus detected in culture supernatant (viral titer) [3]: no virus was detected
- IC50 [3]: 3.7 µM
- CC50 [1]: 184 µM
- Production of TBEV E protein (Western blot) [4]: complete inhibition of viral protein synthesis
- TBEV-induced cytopathic effect / rate of cell death [5]: nearly completely inhibited; also recorded: significantly increased cell survival

Structure (SMILES): CC(=O)OC[C@H]1O[C@@H](n2cc(COC[C@H]3O[C@@H](n4ccc(=O)[nH]c4=O)[C@H](O[Si](C)(C)C(C)(C)C)[C@@H]3O[Si](C)(C)C(C)(C)C)nn2)[C@H](OC(C)=O)[C@@H](OC(C)=O)[C@H]1OC(C)=O [Compound 21, 1-(2″,3″,4″,6″-tetra-O-acetyl-β-D-galactopyranosyl)-4-(2′,3′-di-O-tert-butyldimethylsilyl-uridine-5′-O-methyl)-[1,2,3]-triazole]
- Inhibition of TBEV propagation (size and number of plaques) [2]: nearly a complete inhibition of TBEV propagation
- Plaques detected in dose-response plaque reduction assay [2]: no plaques were detected
- Reduction in the number of plaques [2]: 92% and 62%
- Effect on TBEV titers in dose-response assay [3]: significantly reduced TBEV titers in a dose-dependent manner
- Reduction in viral titer [3]: 10^4 fold
- SI (selectivity index: CC50/IC50) [3]: 24.7
- Virus detected in culture supernatant (viral titer) [3]: no virus was detected
- IC50 [3]: 4.7 µM
- CC50 [1]: 116 µM
- Production of TBEV E protein (Western blot) [4]: dose-dependent reduction; also recorded: greatly decreased at all tested concentrations
- TBEV-induced cytopathic effect / rate of cell death [5]: nearly completely inhibited; also recorded: significantly increased cell survival

Structure (SMILES): CC(=O)OC[C@H]1O[C@@H](OCc2cn(C[C@H]3O[C@@H](n4ccc(=O)[nH]c4=O)[C@@H]4OC(C)(C)O[C@@H]43)nn2)[C@H](OC(C)=O)[C@@H](OC(C)=O)[C@@H]1OC(C)=O [Compound 22, 2′,3′-O-isopropylidene-5′-deoxy-5′-[4-(2″,3″,4″,6″-tetra-O-acetyl-β-D-glucopyranosyl-oxymethyl)-1,2-3-triazol-1-yl]uridine]
- melting point: 108 to 110 °C
- CC50 [1]: 173 µM

Structure (SMILES): CC(=O)OC[C@H]1O[C@@H](OCc2cn(C[C@H]3O[C@@H](n4ccc(=O)[nH]c4=O)[C@@H]4OC(C)(C)O[C@@H]43)nn2)[C@H](OC(C)=O)[C@@H](OC(C)=O)[C@H]1OC(C)=O [Compound 23, 2′,3′-O-isopropylidene-5′-deoxy-5′-[4-(2″,3″,4″,6″-tetra-O-acetyl-β-D-galactopyranosyl-oxymethyl)-1,2-3-triazol-1-yl]uridine]
- melting point: 101 to 105 °C
- CC50 [1]: 157 µM
